Assay results published in patent US6369030B1, “Inhibitors of histone acetyltransferases (HATs) and uses thereof” (The Rockfeller University, priority 1999, dated 2002).
Values joined by “and” are separate entries in the source; they are usually repeats but may differ in a detail not shown here. Identical values can stand only once. Like-named read-outs stand apart in the source and are kept apart here. Residues, ends and D or L forms follow the SMILES beside them. *: point of attachment. CoASCH2CO = CC(C)(COP(=O)(O)OP(=O)(O)OC[C@H]1O[C@@H](n2cnc3c(N)ncnc32)[C@H](O)[C@@H]1OP(=O)(O)O)[C@@H](O)C(=O)NCCC(=O)NCCSCC(=O)*

How the values were obtained:
p300 [1] = molecular target: T1, p300 (Homo sapiens, UniProt Q09472); experiment: HAT activity inhibition assay, p300, mixed histones as substrate; assay type: biochemical
T1 construct: Full length PCAF and p300 proteins were prepared and purified according to previously described methods; made in house
Procedure: (§1) Screening of the peptide CoA conjugate for inhibition of HAT activity of PCAF and p300 was carried out according to standard HAT assay procedures (Ogryzko et al., 1996; Yang et al., 1996; Schiltz et al., 1999) using commercially available mixed calf histone substrates. […] Full length PCAF and p300 proteins were prepared and purified according to previously described methods (Schiltz et al., 1999). HAT inhibition assay procedures were adapted from previously described methods (gryzko et al., 1996; Yang et al., 1996; Schiltz et al., 1999). Briefly, substrate concentrations were 10 μM acetyl-CoA (NEN, ^14C, 0.02 μCi/μL), 33 μg/mL mixed histones (Boehringer); buffer conditions-50 mM Tris-HCl (pH 8), 10 mM sodium butyrate 1 mM phenylmethyl sulfonyl fluoride, 1 mM dithiothreitol, 0.1 mM N,N,N′,N′-ethylenediamine tetraacetic acid and 10% v/v glycerol. Reactions employed purified recombinant p300 and PCAF (Schiltz et al., 1999) at concentrations of 6 nM and 27 nM, respectively. A range of at least 5 inhibitor concentrations were used. Assays were carried out in 0.5 mL plastic tubes at 30° C. and the reaction volumes were 30 μL. Reactions were initiated with the radioactive acetyl-CoA (4 μL) after allowing the enzyme/buffer/histone/inhibitor mixture to equilibrate at 30° C. for 10 min, and reactions quenched after 1 min with 7.5 μL 5×SDS gel load. Mixtures were run out on 15% SDSPAGE visualized with Coomassie blue, dried, and radioactivity quantified by phosphorimage analysis (Molecular Dynamics). In all cases, background acetylation (in the absence of enzyme) was subtracted from the total signal.

PCAF [2] = molecular target: T2, PCAF (Homo sapiens, UniProt Q92831); experiment: HAT activity inhibition assay, PCAF, mixed histones as substrate; assay type: biochemical; conditions: for IC50: [acetyl-CoA]=10 M, [mixed histones]=33 μg/mL, standard errors estimated ±20%
T2 construct: Full length PCAF and p300 proteins were prepared and purified according to previously described methods; made in house
Procedure: as §1

p300 [3] = molecular target: T1, p300; experiment: HAT inhibition assay, p300, nucleosomes as substrate; assay type: biochemical; conditions: inhibitor 20 μM
Procedure: (§2) Full length PCAF and p300 proteins were prepared and purified according to previously described methods (Schiltz et al., 1999). HAT inhibition assay procedures were adapted from previously described methods (gryzko et al., 1996; Yang et al., 1996; Schiltz et al., 1999). […] Reactions employed purified recombinant p300 and PCAF (Schiltz et al., 1999) at concentrations of 6 nM and 27 nM, respectively. A range of at least 5 inhibitor concentrations were used. Assays were carried out in 0.5 mL plastic tubes at 30° C. and the reaction volumes were 30 μL. Reactions were initiated with the radioactive acetyl-CoA (4 μL) after allowing the enzyme/buffer/histone/inhibitor mixture to equilibrate at 30° C. for 10 min, and reactions quenched after 1 min with 7.5 μL 5×SDS gel load. Mixtures were run out on 15% SDSPAGE visualized with Coomassie blue, dried, and radioactivity quantified by phosphorimage analysis (Molecular Dynamics). In all cases, background acetylation (in the absence of enzyme) was subtracted from the total signal.
(§3) 3) FIG. 3. Assessment of p300 and PCAF HAT Activities in p300/PCAF Mixtures. (A) p300 and PCAF HAT activities with mixed histones as substrates.

PCAF [4] = molecular target: T2, PCAF; assay type: biochemical; conditions: nucleosomes as substrate, inhibitor 20 μM
Procedure: as §2, §3

naked DNA transcription = experiment: In vitro transcription from naked DNA template; assay type: biochemical; conditions: 10 μM inhibitor; average of 4 independent experiments
Procedure: (§4) FIG. 4B and C: Transcription from naked DNA and chromatin templates. DNA (28 ng) and freshly assembled chromatin templates (with an equivalent amount of DNA) were incubated with or without activator, Gal4-VP16 (30 ng) for 20 min at 30° C.; 25 ng of baculovirus expressed, highly purified p300 (full length) and 1.5 μM of acetyl-CoA were added as indicated. Following the addition of nuclear extract (source of general transcription factors) and NTPs, transcription reactions were incubated and processed as described.
Recombinant His6-tagged nucleosome assembly protein 1 (NAP1) and transcription activator Gal4-VP16 were expressed in E. coli and purified with nitrilloacetic acid-agarose (Qiagen) as specified by the manufacturer. […] In vitro transcription assays were carried out in 50 μL reaction mixtures containing either 28 ng of DNA or an equivalent amount of chromatin.
(A) Outline of the in vitro transcription protocol. (B) and (C) Transcription form naked DNA and chromatin templates. DNA (28 ng) and freshly assembled chromatin templates (with an equivalent amount of DNA) were incubated with or without activator, Gal4-VP16 (30 ng) for 20 min at 30°, 25 ng of baculovirus expressed, highly purified p300 (full length) and 1.5 μM of acetyl-CoA were added as indicated. […]

[5] = system: p300 and acetyl-CoA dependent transcription from chromatin template; experiment: In vitro chromatin-template transcription dependent on p300 HAT activity; assay type: biochemical, human
Procedure: as §4
The chromatin template was reconstituted by incubation of purified proteins (HeLa core histones, NAP1 and rh TopoI) with a 5.4 kb plasmid (p20855G5MLC2AT) that contains a 690 bp promoter region (5 Gal4 binding sites and the adenovirus major late promoter with a G-less cassette) flanked on both sides by the 5 nucleosome positioning sequence from the sea urchin 55 rRNA gene (Cote et al., 1995). Assembled chromatin was structurally characterized by supercoiling and micrococcal nuclease (MNase) assay (data not shown).
Chromatin template for transcription studies were assembled on a ˜5.4 kb plasmid (p2085S G5MLC2AT) with purified human core histones, rh TpopI, and NAP1 as described (T. K. K. et al., manuscript in preparation). Prior to use in the transcription experiment, assembled, chromatin was subjected to supercoiling and Mnase assay. […]

[6] = [acetyl-CoA]=10 M, [mixed histones]=33 μg/mL, standard errors estimated ±20%, read-out: IC50 with p300
[7] = mixed histones, individual enzyme, inhibitor 20 μM

T1 sequence (Q09472 whole entry): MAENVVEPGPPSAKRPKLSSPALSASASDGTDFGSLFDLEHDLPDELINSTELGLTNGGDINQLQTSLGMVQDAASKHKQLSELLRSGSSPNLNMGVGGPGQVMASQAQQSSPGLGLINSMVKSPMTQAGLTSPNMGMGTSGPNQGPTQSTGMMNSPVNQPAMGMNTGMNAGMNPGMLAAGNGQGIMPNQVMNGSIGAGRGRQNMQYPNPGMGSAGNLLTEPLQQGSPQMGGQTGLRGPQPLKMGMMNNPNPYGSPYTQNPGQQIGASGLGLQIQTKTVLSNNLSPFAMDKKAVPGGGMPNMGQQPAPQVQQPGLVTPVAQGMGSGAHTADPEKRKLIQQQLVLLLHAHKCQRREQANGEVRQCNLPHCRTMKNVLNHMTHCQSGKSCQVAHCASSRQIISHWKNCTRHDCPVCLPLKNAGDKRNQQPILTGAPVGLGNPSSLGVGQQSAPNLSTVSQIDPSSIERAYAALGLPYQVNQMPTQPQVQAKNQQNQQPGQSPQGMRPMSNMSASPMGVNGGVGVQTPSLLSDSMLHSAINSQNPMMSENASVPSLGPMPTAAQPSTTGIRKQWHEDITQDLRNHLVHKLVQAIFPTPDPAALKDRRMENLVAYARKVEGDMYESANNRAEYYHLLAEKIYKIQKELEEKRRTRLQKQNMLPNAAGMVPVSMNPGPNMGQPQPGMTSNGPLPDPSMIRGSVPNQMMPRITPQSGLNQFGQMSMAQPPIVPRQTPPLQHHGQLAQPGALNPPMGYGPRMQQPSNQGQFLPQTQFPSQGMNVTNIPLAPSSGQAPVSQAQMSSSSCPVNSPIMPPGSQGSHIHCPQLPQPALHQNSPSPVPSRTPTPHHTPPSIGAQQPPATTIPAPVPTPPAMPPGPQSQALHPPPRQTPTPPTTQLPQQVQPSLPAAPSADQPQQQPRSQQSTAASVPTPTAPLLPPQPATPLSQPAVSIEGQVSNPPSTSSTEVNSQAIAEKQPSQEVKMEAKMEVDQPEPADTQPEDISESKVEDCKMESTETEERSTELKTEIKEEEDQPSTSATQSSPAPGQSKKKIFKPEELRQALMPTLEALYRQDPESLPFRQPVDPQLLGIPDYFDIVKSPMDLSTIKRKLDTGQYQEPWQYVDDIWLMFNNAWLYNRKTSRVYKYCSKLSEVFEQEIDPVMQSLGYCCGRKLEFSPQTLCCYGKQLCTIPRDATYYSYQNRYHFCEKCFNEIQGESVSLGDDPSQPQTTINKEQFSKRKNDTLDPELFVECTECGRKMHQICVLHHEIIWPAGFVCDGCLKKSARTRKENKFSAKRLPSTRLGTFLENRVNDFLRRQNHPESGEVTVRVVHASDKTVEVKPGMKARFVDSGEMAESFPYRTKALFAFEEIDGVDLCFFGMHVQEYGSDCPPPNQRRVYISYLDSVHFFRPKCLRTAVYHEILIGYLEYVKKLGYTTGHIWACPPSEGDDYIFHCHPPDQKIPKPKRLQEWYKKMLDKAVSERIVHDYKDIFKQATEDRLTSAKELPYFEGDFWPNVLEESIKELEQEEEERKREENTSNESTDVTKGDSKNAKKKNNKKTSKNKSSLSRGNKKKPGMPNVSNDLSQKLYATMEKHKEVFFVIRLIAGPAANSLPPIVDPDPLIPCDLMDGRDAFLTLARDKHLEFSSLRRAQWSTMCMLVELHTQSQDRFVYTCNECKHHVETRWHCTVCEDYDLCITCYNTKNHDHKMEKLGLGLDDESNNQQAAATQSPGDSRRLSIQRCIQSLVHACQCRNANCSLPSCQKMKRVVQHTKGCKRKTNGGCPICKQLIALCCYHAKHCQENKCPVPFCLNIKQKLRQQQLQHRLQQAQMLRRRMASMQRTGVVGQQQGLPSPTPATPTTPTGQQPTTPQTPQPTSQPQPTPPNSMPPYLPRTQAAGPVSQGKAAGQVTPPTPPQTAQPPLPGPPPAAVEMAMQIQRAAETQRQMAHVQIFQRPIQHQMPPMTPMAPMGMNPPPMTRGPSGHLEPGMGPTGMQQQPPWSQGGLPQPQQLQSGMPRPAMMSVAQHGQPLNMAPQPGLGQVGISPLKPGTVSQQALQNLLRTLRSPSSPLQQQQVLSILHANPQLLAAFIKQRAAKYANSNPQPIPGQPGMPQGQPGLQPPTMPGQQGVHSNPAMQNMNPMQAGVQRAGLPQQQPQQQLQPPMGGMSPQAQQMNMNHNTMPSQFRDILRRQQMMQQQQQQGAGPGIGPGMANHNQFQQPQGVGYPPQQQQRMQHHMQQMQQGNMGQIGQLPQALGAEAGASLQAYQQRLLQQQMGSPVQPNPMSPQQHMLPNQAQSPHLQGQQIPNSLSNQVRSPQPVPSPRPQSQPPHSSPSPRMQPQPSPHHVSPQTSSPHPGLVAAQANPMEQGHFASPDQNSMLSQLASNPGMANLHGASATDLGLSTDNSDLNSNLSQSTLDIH
T2 sequence (Q92831 whole entry): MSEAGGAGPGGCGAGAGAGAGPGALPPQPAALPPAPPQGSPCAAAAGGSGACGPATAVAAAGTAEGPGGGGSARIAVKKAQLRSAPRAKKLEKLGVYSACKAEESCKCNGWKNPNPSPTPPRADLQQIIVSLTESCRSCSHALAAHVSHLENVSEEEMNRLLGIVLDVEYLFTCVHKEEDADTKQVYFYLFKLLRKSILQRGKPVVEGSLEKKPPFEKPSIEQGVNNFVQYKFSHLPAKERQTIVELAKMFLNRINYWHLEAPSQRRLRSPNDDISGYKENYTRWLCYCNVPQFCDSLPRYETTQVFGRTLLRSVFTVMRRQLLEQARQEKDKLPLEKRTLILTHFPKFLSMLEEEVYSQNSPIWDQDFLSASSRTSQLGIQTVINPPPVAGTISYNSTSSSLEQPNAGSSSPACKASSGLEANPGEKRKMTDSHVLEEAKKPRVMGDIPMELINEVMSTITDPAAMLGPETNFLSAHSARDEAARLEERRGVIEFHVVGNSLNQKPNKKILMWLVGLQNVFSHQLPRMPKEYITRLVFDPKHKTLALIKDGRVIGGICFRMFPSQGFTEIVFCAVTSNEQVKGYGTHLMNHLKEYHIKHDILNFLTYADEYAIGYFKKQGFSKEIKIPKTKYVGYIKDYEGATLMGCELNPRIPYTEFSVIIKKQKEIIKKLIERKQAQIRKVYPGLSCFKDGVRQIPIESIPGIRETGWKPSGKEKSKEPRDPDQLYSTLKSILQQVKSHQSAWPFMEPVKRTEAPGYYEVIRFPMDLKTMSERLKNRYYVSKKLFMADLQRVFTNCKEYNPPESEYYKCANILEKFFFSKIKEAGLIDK

| SMILES | inhibition of p300 HAT activity, in words (p300 [1]; mixed histones) | IC50 (PCAF [2]) [µM] | inhibition of PCAF HAT activity, in words (PCAF [2]; mixed histones) | IC50 (p300 [1]; [6]) | p300 inhibition (nucleosome acetylation) (p300 [3]) | PCAF inhibition (nucleosome acetylation) (PCAF [4]) | inhibition of naked DNA transcription (naked DNA transcription) | selectivity in blocking p300 HAT activity (versus PCAF) (p300 [1]) [fold] | IC50 (p300 [1]; mixed calf histone substrates, read-out: IC50 of p300 acetyltransferase activity) [nM] | p300 HAT activity blocked (p300 [1]; [7]) | transcriptional activation from chromatin template in the presence of p300-PCAF mixtures ([5]; p300-PCAF mixtures, data not shown) | inhibition of p300 and acetyl-CoA dependent transcription activation from the chromatin template ([5]; p300 preincubated with 10 μM inhibitor) | inhibition with PCAF (PCAF [2]; [7]) |
| --- | --- | --- | --- | --- | --- | --- | --- | --- | --- | --- | --- | --- | --- |
| CC(C)(COP(=O)(O)OP(=O)(O)OC[C@H]1O[C@@H](n2cnc3c(N)ncnc32)[C@H](O)[C@@H]1OP(=O)(O)O)[C@@H](O)C(=O)NCCC(=O)NCCS [CoASH, reference compound] | Neither the H3-20 peptide (which lacked CoA attachment) nor CoASH itself were potent HAT inhibitors | > 20 | Neither the H3-20 peptide (which lacked CoA attachment) nor CoASH itself were potent HAT inhibitors | – | – | – | – | – | – | – | – | – | – |
| CC(=O)NCC(=O)NCC(=O)N[C@@H](CCCCNC(=O)CSCCNC(=O)CCNC(=O)[C@H](O)C(C)(C)COP(=O)(O)OP(=O)(O)OC[C@H]1O[C@@H](n2cnc3c(N)ncnc32)[C@H](O)[C@@H]1OP(=O)(O)O)C(=O)N[C@@H](C)C(=O)N1CCC[C@H]1C(=O)N[C@@H](CCCNC(=N)N)C(=O)N[C@@H](CCCCN)C(N)=O [Compound H3-CoA-7] (Ac-GGK(CoASCH2CO)APRK-NH2) | – | > 20 | not achieved | > 30000 nM | – | – | – | – | – | – | – | – | – |
| CC(=O)N[C@@H](CCCCNC(=O)CSCCNC(=O)CCNC(=O)[C@H](O)C(C)(C)COP(=O)(O)OP(=O)(O)OC[C@H]1O[C@@H](n2cnc3c(N)ncnc32)[C@H](O)[C@@H]1OP(=O)(O)O)C(N)=O [Lys-CoA] | – | ~200 | – | ~500 nM and 500 nM | greater than 90% | less than 10% | 15-20% | ~200 | ~500 | greater than 90% | abolished transcriptional activation | completely abolished | less than 10% |
